Data as given in patent US20260083704A1, “LXR MODULATORS WITH BICYCLIC CORE MOIETY FOR TREATING DYSLIPIDEMIAS” (OrsoBio, Inc., priority 2022, published 2026).

Columns and labels:
[1] = biological target: T1, GST-LXRβ ligand-binding domain (Homo sapiens, UniProt P55055); assay: TR-FRETβ activity assay (NCoA3 coactivator peptide recruitment); type: biochemical; settings: 1 μM 24(S)-25-epoxycholesterol prestimulation
T1 construct: amino acids 156-461; NP009052; made in house; host or cells: E. coli
T1 sequence (P55055 156-460 limits assumed): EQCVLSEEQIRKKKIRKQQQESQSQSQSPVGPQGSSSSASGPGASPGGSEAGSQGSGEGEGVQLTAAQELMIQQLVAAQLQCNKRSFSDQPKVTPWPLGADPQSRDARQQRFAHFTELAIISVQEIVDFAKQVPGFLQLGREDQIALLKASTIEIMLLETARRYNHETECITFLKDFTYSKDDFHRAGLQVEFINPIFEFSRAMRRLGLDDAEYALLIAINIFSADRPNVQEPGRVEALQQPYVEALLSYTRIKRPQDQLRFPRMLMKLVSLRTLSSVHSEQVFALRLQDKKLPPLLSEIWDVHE
Method: Recombinant GST-LXRβ ligand-binding domain (LBD; amino acids 156-461; NP009052; SEQ ID NO:4) was expressed in E. coli and purified via gluthatione-sepharose affinity chromatography. N-terminally biotinylated NCoA3 coactivator peptide (SEQ ID NO:7) was chemically synthesized (Eurogentec). Assays were done in 384 well format (final assay volume of 25 μL/well) in a Tris/HCl buffer (pH 6.8) containing KCl, bovine serum albumin, Triton-X-100 and 1 μM 24(S)-25-epoxycholesterol as LXR-prestimulating agonist. Assay buffer was provided and test articles (potential LXR inverse agonists) were titrated to yield final assay concentrations of 50 μM, 16.7 μM, 5.6 μM, 1.9 μM, 0.6 μM, 0.2 μM, 0.07 μM, 0.02 μM, 0.007 μM, 0.002 μM with one vehicle control. Finally, a detection mix was added containing anti GST-Tb cryptate (CisBio; 610SAXLB) and Streptavidin-XL665 (CisBio; 610SAXLB) as fluorescent donor and acceptor, respectively, as well as the coactivator peptide and LXRβ-LBD protein (SEQ ID NO:4). The reaction was mixed thoroughly, equilibrated for 1 h at 4° C. and vicinity of LXRβ and coactivator peptide was detected by measurement of fluorescence in a VictorX4 multiplate reader (PerkinElmer Life Science) using 340 nm as excitation and 615 and 665 nm as emission wavelengths. Assays were performed in triplicates.
240 mM KCl, 1 μg/μL BSA, 0.002% Triton-X-100, […] anti GST-Tb cryptate, 2.5 ng/μL Streptavidin-XL665, coactivator peptide (400 nM), LXRβ protein (530 μg/mL, i.e. 76 nM).

[2] = biological target: T2, LXRβ (Homo sapiens, UniProt P55055); assay: LXR Gal4 reporter transient transfection assay (mammalian two-hybrid, HEK293), LXRβ; type: cell-based; set-up: LXRβ (amino acids 156-461); expressed in transfected cells; host or cells: HEK293; settings: full length (FL) LXRβ, HEK293; read-out: FL-M2H Gal4β
T2 sequence (P55055 1-460): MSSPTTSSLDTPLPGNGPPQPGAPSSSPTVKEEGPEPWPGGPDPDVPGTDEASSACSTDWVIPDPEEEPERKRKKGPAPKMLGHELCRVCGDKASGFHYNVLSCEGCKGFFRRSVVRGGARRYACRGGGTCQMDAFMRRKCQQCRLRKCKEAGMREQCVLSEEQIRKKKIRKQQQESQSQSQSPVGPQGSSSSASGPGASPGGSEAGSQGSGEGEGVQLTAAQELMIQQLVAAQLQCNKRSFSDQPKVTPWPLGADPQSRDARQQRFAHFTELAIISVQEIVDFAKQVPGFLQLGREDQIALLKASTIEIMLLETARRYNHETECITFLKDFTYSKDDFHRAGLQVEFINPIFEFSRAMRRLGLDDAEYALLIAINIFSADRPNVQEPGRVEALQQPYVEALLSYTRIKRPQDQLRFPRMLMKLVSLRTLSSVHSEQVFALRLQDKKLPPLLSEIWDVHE
Method: LXRα and LXRβ activity status was determined via detection of interaction with coactivator and corepressor proteins in mammalian two-hybrid experiments (M2H). For this, via transient transfection the full length (FL) proteins of LXRα (amino acids 1-447; NP005684; SEQ ID NO:1) or LXRβ-(amino acids 1-461; NP009052; SEQ ID NO:2) or the ligand-binding domains (LBD) of LXRα (amino acids 155-447 SEQ ID NO:3) or LXRβ (amino acids 156-461; SEQ ID NO:4) were expressed from pCMV-AD (Stratagene) as fusions to the transcriptional activation domain of NFkB. As cofactors, domains of either the steroid receptor coactivator 1 (SRC1; amino acids 552-887; SEQ ID NO:5) or of the corepressor NCoR (amino acids 1906-2312; NP006302; SEQ ID NO:6) were expressed as fusions to the DNA binding domain of the yeast transcription factor GAL4 (from pCMV-BD; Stratagene). Interaction was monitored via activation of a coexpressed Firefly Luciferase Reporter gene under control of a promoter containing repetitive GAL4 response elements (vector pFRLuc; Stratagene). Transfection efficiency was controlled via cotransfection of constitutively active pRL-CMV Renilla reniformis luciferase reporter (Promega). HEK293 cells were grown in minimum essential medium (MEM) with 2 mM L-glutamine and Earle's balanced salt solution supplemented with 8.3% fetal bovine serum, 0.1 mM non-essential amino acids, 1 mM sodium pyruvate, at 37° C. in 5% CO2. 3.5×10^4 cells/well were plated in 96-well cell culture plates in growth medium supplemented with 8.3% fetal bovine serum for 16-20 h to ˜90% confluency. For transfection, medium was taken off and LXR and cofactor expressing plasmids as well as the reporter plasmids are added in 30 μL OPTIMEM/well including polyethylene-imine (PEI) as vehicle. Typical amounts of plasmids transfected/well: pCMV-AD-LXR (5 ng), pCMV-BD-cofactor (5 ng), pFR-Luc (100 ng), pRL-CMV (0.5 ng). Compound stocks were prepared in DMSO, prediluted in MEM to a total volume of 120 μL, and added 4 h after addition of the transfection mixture (final vehicle concentration not exceeding 0.2%). Cells were incubated for additional 16 h, lysed for 10 min in 1×Passive Lysis Buffer (Promega) and Firefly and Renilla luciferase activities were measured sequentially in the same cell extract using buffers containing D-luciferine and coelenterazine, respectively. Measurements of luminescence were done in a BMG-luminometer.
The potencies of Compound 21/3 and its analog, Compound pre-6/3, against LXRα and LXRβ were evaluated in biochemical binding assays, cellular mammalian two-hybrid (M2H) interaction assays evaluating nuclear receptor co-repressor (NCOR) recruitment, and cellular reporter assays evaluating transcriptional activity (Table 5).

Compound | EC50 [1] [nM] | EC50 [2] [nM]
N#Cc1cccc(C#N)c1-c1c(-c2cccc(N3CC(C(=O)O)C3)c2)n(S(=O)(=O)c2ccc(C(F)F)cc2)c2ccc(F)cc12 [3/67] | 100 to 1000 | 100 to 1000
N#Cc1cccc(C#N)c1-c1c(-c2cccc(C3CC3C(=O)O)c2)n(S(=O)(=O)c2ccc(C(F)F)cc2)c2ccc(F)cc12 (stereo not drawn) [3/68] | 100 to 1000 | < 100
O=C(O)c1ccc(-c2cccc(-c3c(-c4cccc5oncc45)c4cc(F)ccc4n3S(=O)(=O)c3ccc(C(F)F)cc3)c2)c(Cl)c1 [3/69] | 100 to 1000 | 100 to 1000
N#Cc1cccc(C#N)c1-c1c(-c2cccc(-c3ccc(C(=O)O)cc3Cl)c2)n(S(=O)(=O)c2ccc(C(F)F)cc2)c2cnc(O)cc12 [3/70] | 100 to 1000 | 100 to 1000
N#Cc1cccc(C#N)c1-c1c(-c2cccc(-c3c(F)cc(OCC(=O)O)cc3F)c2)n(S(=O)(=O)c2ccc(C(F)F)cc2)c2ccc(F)cc12 [3/71] | < 100 | < 100
CC(O)(C(=O)O)c1cc(F)c(-c2cccc(-c3c(-c4c(C#N)cccc4C#N)c4cc(F)ccc4n3S(=O)(=O)c3ccc(C(F)F)cc3)c2)c(F)c1 (stereo not drawn) [3/72] | < 100 | < 100
Cc1ccc(S(=O)(=O)n2c(-c3cccc(C4CC4C(=O)O)c3)c(-c3ccsc3C#N)c3ccncc32)cc1 (stereo not drawn) [4/1] | 1000 to 10000 | < 100
Cc1ccc(S(=O)(=O)n2c(-c3cccc(C4CC4C(=O)O)c3)c(-c3ccsc3C#N)c3cccnc32)cc1 (stereo not drawn) [4/2] | 1000 to 10000 | 100 to 1000
Cc1ccc(S(=O)(=O)n2c(-c3cccc(N4CC(C(=O)O)C4)c3)c(-c3ccsc3C#N)c3sccc32)cc1 [4/3] | 1000 to 10000 | < 100
Cc1ccc(S(=O)(=O)n2c(-c3cccc(-c4ccc(CO)c(S(=O)(=O)CC(=O)O)c4)c3)c(-c3ccsc3C#N)c3ccccc32)cc1 [5/1] | 100 to 1000 | 100 to 1000
Cc1ccc(S(=O)(=O)n2c(-c3cccc(C45CC(C(=O)O)(C4)C5)c3)c(-c3ccsc3C#N)c3ccccc32)cc1 [5/2] | 100 to 1000 | 100 to 1000
Cc1ccc(S(=O)(=O)n2c(-c3cccc(C#CC(C)(C)C(=O)O)c3)c(-c3ccsc3C#N)c3cc(F)ccc32)cc1 [5/4] | 1000 to 10000 | < 100
Cc1ccc(S(=O)(=O)n2c(-c3cccc(-n4ccc(C(=O)O)cc4=O)c3)c(-c3ccsc3C#N)c3cc(F)ccc32)cc1 [5/5] | 100 to 1000 | 100 to 1000
Cc1ccc(S(=O)(=O)n2c(-c3ccnc(-c4ccc(C(=O)O)cc4)c3)c(-c3ccsc3C#N)c3cc(F)ccc32)cc1 [5/6] | 100 to 1000 | < 100
N#Cc1sccc1-c1c(-c2cccc(N3CC(C(=O)O)C3)c2)n(S(=O)(=O)c2ccc(Cl)cc2)c2ccc(F)cc12 [5/7] | 100 to 1000 | < 100
COc1ccc(S(=O)(=O)n2c(-c3cccc(N4CC(C(=O)O)C4)c3)c(-c3ccsc3C#N)c3cc(F)ccc32)cn1 [5/8] | 100 to 1000 | 100 to 1000
Cc1ccc(S(=O)(=O)n2c(-c3cccc(N4CC[C@@H](C(=O)O)C[C@H]4C)c3)c(-c3ccsc3C#N)c3cc(F)ccc32)cc1 [5/9] | 100 to 1000 | < 100
O=C(O)c1ccc(-c2cccc(-c3c(-c4ncccc4N4CC(O)C4)c4cc(F)ccc4n3S(=O)(=O)c3ccc(C(F)F)cc3)c2)c(Cl)c1 [5/10] | 1000 to 10000 | 100 to 1000
N#Cc1sccc1-c1c(-c2cccc(C3CC3C(=O)NO)c2)n(S(=O)(=O)c2ccc(Cl)cc2)c2ccccc12 (stereo not drawn) [6/1] | 100 to 1000 | < 100
CC(C)(C)OC(=O)CNC(=O)c1ccc(-c2cccc(-c3c(-c4c(C#N)cccc4C#N)c4cc(F)ccc4n3S(=O)(=O)c3ccc(C(F)F)cc3)c2)c(Cl)c1 [6/3] | < 100 | < 100
Cc1ccc(S(=O)(=O)n2c(-c3cccc(-c4ccc(CN(C)C)cc4)c3)c(-c3ccsc3C#N)c3cc(F)ccc32)cc1 [8/1] | 100 to 1000 | < 100
O=C(O)c1ccc(-c2cccc(-c3c(-c4ccccc4C4COC4)c4cnccc4n3S(=O)(=O)c3ccc(C(F)F)cc3)c2)c(Cl)c1 [8/3] | 100 to 1000 | < 100
N#Cc1ccccc1-c1c(-c2cccc(-c3ccc(C(=O)O)cc3Cl)c2)n(S(=O)(=O)c2ccc(C(F)F)cc2)c2cccnc12 [8/7] | 100 to 1000 | < 100
N#Cc1sccc1-c1c(-c2cccc(-c3ccc(C(=O)NCCS(=O)(=O)O)cc3Cl)c2)n(S(=O)(=O)c2ccc(C(F)F)cc2)c2ccc(F)cc12 [10/3] | < 100 | < 100
O=C(NCCS(=O)(=O)O)C1CC1c1cccc(-c2c(-c3c(Cl)cccc3Cl)c3cc(F)ccc3n2S(=O)(=O)c2ccc(C(F)F)cc2)c1 (stereo not drawn) [10/4] | < 100 | < 100
Cc1ccc(S(=O)(=O)n2c(-c3cccc(-c4ccc(C(=O)O)cc4Cl)c3)c(-c3cccc(F)c3C#N)c3cc(F)ccc32)cc1 [11/1] | < 100 | < 100
Cc1ccc(S(=O)(=O)n2c(-c3cccc(-c4ccc(C(=O)O)cc4Cl)c3)c(-c3cccc(C)c3C#N)c3cc(F)ccc32)cc1 [11/2] | < 100 | < 100
COc1cccc(-c2c(-c3cccc(-c4ccc(C(=O)O)cc4Cl)c3)n(S(=O)(=O)c3ccc(C)cc3)c3ccc(F)cc23)c1C#N [11/3] | < 100 | < 100
Cc1ccc(S(=O)(=O)n2c(-c3cccc(-c4ccc(C(=O)O)cc4Cl)c3)c(-c3ccc(C)cc3C#N)c3cc(F)ccc32)cc1 [11/4] | 100 to 1000 | < 100
Cc1ccc(S(=O)(=O)n2c(-c3cccc(-c4ccc(C(=O)O)cc4Cl)c3)c(-c3cc(C)ccc3C#N)c3cc(F)ccc32)cc1 [11/5] | < 100 | < 100
